Measured values from publication PMC5085761 (International Journal of Molecular Sciences, 2016).

Assays:
OATP1B3 = biological target: T1, OATP1B3 (Homo sapiens, UniProt Q9NPD5); experiment: [14C]fluciclovine uptake by OATP1B3-expressing cells; format: in vitro ADME; settings: OATP1B3 cells vs mock cells
T1 construct: host or cells: HEK293
T1 sequence (Q9NPD5 1-702): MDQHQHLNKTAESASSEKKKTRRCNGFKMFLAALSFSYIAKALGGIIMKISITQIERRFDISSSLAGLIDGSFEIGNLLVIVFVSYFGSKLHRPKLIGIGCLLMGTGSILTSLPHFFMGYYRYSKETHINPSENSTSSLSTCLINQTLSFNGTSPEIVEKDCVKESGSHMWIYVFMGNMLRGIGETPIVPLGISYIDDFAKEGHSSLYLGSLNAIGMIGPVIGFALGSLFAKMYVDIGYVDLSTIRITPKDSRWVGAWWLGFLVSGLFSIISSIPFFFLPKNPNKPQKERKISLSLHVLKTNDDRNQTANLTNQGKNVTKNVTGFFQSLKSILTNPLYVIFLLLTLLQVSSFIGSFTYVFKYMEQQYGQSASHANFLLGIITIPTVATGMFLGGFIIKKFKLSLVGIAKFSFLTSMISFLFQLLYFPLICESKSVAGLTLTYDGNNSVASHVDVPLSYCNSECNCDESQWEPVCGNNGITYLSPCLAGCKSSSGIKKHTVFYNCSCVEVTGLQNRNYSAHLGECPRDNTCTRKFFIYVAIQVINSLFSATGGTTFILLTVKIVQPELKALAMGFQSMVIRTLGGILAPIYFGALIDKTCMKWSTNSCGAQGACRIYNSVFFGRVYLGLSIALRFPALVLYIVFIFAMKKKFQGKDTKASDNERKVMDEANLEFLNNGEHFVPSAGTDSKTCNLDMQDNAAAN
Description: (§1) For the SLC transporter experiments, Mock Flp-in-293 cells (Flp/mock), OAT1-expressing Flp-in-293 cells (Flp/OAT1), mock HEK293 cells (HEK/mock), and OATP1B3-expressing HEK293 cells (HEK/OATP1B3) were obtained from Kanazawa University (Ishikawa, Japan). Briefly, Flp-in-293 and HEK293 cells were transfected with the appropriate plasmid DNA and selected using antibiotics (hygromycin or G-418). All cell lines were cultured in DMEM (Life Technologies Japan) supplemented with 10% (v/v) fetal bovine serum (American Type Culture Collection) and antibiotics (100 U/mL penicillin and 100 μg/mL streptomycin (Life Technologies Japan) for mock cells, 0.2 mg/mL hygromycin for Flp/OAT1 cells, and 1.2 mg/mL G-418 (Roche Diagnostics K.K., Tokyo, Japan) for HEK/OATP1B3 cells) at 37 °C under an atmosphere containing 5% CO2. […]
(§2) The experiments were performed as described previously, with minor modifications. […] The cells were lysed in 0.3 mL of 0.1N NaOH at room temperature, after which the radioactivity of each aliquot was measured as described above. The protein concentration of the cell lysate was determined with a VersaMax microplate reader (Molecular Devices Japan K.K., Osaka, Japan) or SpectraMax i3x (Molecular Devices Japan K.K.; only for OATP1B1) using a BCA Protein Assay Kit (Thermo Fisher Scientific, Kanagawa, Japan). Tracer uptake was expressed as pmol/mg protein. […]

OAT3 = biological target: T2, OAT3 (Homo sapiens, UniProt Q8TCC7); experiment: Inhibition of tracer uptake in OAT3-expressing cells; format: in vitro ADME
T2 construct: host or cells: HEK293
T2 sequence (Q8TCC7 1-542): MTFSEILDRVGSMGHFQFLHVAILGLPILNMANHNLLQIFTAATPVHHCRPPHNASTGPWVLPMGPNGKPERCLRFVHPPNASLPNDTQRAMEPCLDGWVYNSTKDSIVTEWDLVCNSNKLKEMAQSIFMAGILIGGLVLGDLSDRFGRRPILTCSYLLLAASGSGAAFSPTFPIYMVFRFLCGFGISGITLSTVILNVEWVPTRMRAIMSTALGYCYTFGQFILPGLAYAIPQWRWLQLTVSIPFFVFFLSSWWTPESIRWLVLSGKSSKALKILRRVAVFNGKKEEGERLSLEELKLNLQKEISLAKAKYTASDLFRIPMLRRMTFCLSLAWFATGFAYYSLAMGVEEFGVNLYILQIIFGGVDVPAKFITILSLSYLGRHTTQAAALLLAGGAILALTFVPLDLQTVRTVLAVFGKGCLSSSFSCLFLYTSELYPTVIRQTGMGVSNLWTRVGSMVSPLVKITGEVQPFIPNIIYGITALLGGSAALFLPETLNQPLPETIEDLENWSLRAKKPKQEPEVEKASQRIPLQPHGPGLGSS
Description: as §1, §2

Compound	drug transporter-mediated uptake (OATP1B3)	inhibition by fluciclovine at millimolar concentrations observed (OAT3; OAT3, tracer [3H]ES 1 µM, 100 µM–10 mM fluciclovine)	OAT3-mediated ES uptake (OAT3; in the presence of 10 mM fluciclovine)
N[14C]1(C(=O)O)CC(F)C1 (stereo not drawn) [[^14C]fluciclovine, trans-1-amino-3-fluoro[1-^14C]cyclobutanecarboxylic acid]	negligible	–	–
N[C@]1(C(=O)O)C[C@@H](F)C1 [fluciclovine]	–	not	increased
